# Legend:
# Format in all cases: cell-based, S. cerevisiae
# Details in all cases: 1 uM small molecule, difference to activity without small molecule, average of two trials
# [1] = target: T1, LexA (GSG)2mDHFR / B42 (GSG)rGR2 (UniProt P00375+P06536, C656G/F620S); experiment: β-galactosidase activity assay, strain V504Y
# T1 construct: rat Glucocorticoid Receptor (aa 524-795) with point mutations; expressed in transfected cells; host or cells: S. cerevisiae FY250
# T1 sequence (P00375 1-187): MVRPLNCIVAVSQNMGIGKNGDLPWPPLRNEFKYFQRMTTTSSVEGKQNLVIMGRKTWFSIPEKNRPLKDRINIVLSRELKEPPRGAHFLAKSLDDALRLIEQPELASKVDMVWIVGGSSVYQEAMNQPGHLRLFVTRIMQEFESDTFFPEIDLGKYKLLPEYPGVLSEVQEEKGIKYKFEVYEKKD
# T1 sequence (P06536 524-795 F620S/C656G limits assumed): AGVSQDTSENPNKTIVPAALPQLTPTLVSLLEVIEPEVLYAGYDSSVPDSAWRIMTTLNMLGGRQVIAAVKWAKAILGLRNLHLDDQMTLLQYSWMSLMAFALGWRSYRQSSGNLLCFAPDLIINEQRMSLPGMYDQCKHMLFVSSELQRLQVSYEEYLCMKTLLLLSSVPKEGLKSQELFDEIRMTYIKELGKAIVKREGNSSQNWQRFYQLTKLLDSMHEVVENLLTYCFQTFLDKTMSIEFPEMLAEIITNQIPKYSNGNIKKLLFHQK
# Text: (§1) Table III explains the components of each strain. Each strain was constructed from the parent yeast strain FY250 and also contains the pMW106 plasmid, which has the LacZ reporter gene that is turned on only in when the LexA DNA binding domain and the B42 activation are brought in tot he vicinity of each other. We use several different strains because we use DHFR from two different species, mDHFR is from murine, while eDHFR is from E. coli. We are asl oable to switch the small moleculebinding domains. For example, the strain containing LexA-eDHFR with B42-rGH2 is a different strain and behaves differently from the strain containing LexA-rGR2 with B42-eDHFR. We also put in short 6 amino acid linkers between the two domains of our protein chimeras and thus these are different strain as well.
# (§2) The results in Table IV are averages of two separate trials. Each strain was examined with small molecules and without small molecules. The absolute activity is given as the β-galactisidase activity […]. The average β-galactosidse activity for a strain without small molecule (i.e. the negative control) was about 100 β-galactosidase units.
# [2] = target: T2, LexA (GSG)2mDHFR / B42 rGR2 (UniProt P00375+P06536, C656G/F620S); experiment: β-galactosidase activity assay, strain V502Y
# T2 construct: rat Glucocorticoid Receptor (aa 524-795) with point mutations; expressed in transfected cells; host or cells: S. cerevisiae FY250
# T2 sequence (P00375 1-187): T1 sequence (P00375 1-187)
# T2 sequence (P06536 524-795 F620S/C656G limits assumed): T1 sequence (P06536 524-795 F620S/C656G limits assumed)
# Text: as §1, §2
# LexA eDHFR / B42 rGR2 = target: T3, LexA eDHFR / B42 rGR2 (UniProt P06536+P0ABQ4, C656G/F620S); experiment: β-galactosidase activity assay, strain V493Y
# T3 construct: rat Glucocorticoid Receptor (aa 524-795) with point mutations; expressed in transfected cells; host or cells: S. cerevisiae FY250
# T3 sequence (P0ABQ4 1-159): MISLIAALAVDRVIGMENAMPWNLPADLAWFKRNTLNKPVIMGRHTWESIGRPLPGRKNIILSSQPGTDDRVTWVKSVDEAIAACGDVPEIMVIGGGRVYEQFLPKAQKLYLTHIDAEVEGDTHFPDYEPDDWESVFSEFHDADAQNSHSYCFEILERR
# T3 sequence (P06536 524-795 F620S/C656G limits assumed): T1 sequence (P06536 524-795 F620S/C656G limits assumed)
# Text: as §1, §2
# LexA rGR2 / B42 eDHFR = target: T4, LexA rGR2 / B42 eDHFR (UniProt P06536+P0ABQ4, C656G/F620S); experiment: β-galactosidase activity assay, strain V505Y
# T4 construct: rat Glucocorticoid Receptor (aa 524-795) with point mutations; expressed in transfected cells; host or cells: S. cerevisiae FY250
# T4 sequence (P06536 524-795 F620S/C656G limits assumed): T1 sequence (P06536 524-795 F620S/C656G limits assumed)
# T4 sequence (P0ABQ4 1-159): T3 sequence (P0ABQ4 1-159)
# Text: as §1, §2
# [3] = target: T5, LexA (GSG)2rGR2 / B42 (GSG)2mDHFR (UniProt P00375+P06536, C656G/F620S); experiment: β-galactosidase activity assay, strain V512Y
# T5 construct: rat Glucocorticoid Receptor (aa 524-795) with point mutations; expressed in transfected cells; host or cells: S. cerevisiae FY250
# T5 sequence (P06536 524-795 F620S/C656G limits assumed): T1 sequence (P06536 524-795 F620S/C656G limits assumed)
# T5 sequence (P00375 1-187): T1 sequence (P00375 1-187)
# Text: as §1, §2
# LexA mDHFR / B42 rGR2 = target: T6, LexA mDHFR / B42 rGR2 (UniProt P00375+P06536, C656G/F620S); experiment: β-galactosidase activity assay, strain V495Y
# T6 construct: rat Glucocorticoid Receptor (aa 524-795) with point mutations; expressed in transfected cells; host or cells: S. cerevisiae FY250
# T6 sequence (P00375 1-187): T1 sequence (P00375 1-187)
# T6 sequence (P06536 524-795 F620S/C656G limits assumed): T1 sequence (P06536 524-795 F620S/C656G limits assumed)
# Text: as §1, §2
# [4] = target: T7, LexA (GSG)2rGR2 / B42 eDHFR (UniProt P06536+P0ABQ4, C656G/F620S); experiment: β-galactosidase activity assay, strain V506Y
# T7 construct: expressed in transfected cells; host or cells: S. cerevisiae FY250 with pMW106 lacZ reporter
# T7 sequence (P06536 524-795 F620S/C656G limits assumed): T1 sequence (P06536 524-795 F620S/C656G limits assumed)
# T7 sequence (P0ABQ4 1-159): T3 sequence (P0ABQ4 1-159)
# Text: as §1, §2
# [5] = target: T8, LexA eDHFR / B42 gly6rGR2 (UniProt P06536+P0ABQ4, C656G/F620S); experiment: β-galactosidase activity assay, strain V375Y
# T8 construct: rat Glucocorticoid Receptor (aa 524-795) with point mutations; expressed in transfected cells; host or cells: S. cerevisiae FY250
# T8 sequence (P0ABQ4 1-159): T3 sequence (P0ABQ4 1-159)
# T8 sequence (P06536 524-795 F620S/C656G limits assumed): T1 sequence (P06536 524-795 F620S/C656G limits assumed)
# Text: as §1, §2
# [6] = target: T9, LexA mDHFR / B42 (GSG)rGR2 (UniProt P00375+P06536, C656G/F620S); experiment: β-galactosidase activity assay, strain V497Y
# T9 construct: rat Glucocorticoid Receptor (aa 524-795) with point mutations; expressed in transfected cells; host or cells: S. cerevisiae FY250
# T9 sequence (P00375 1-187): T1 sequence (P00375 1-187)
# T9 sequence (P06536 524-795 F620S/C656G limits assumed): T1 sequence (P06536 524-795 F620S/C656G limits assumed)
# Text: as §1, §2
# [7] = target: T10, LexA (GSG)2rGR2 / B42 (GSG)2eDHFR (UniProt P06536+P0ABQ4, C656G/F620S); experiment: β-galactosidase activity assay, strain V510Y
# T10 construct: rat Glucocorticoid Receptor (aa 524-795) with point mutations; expressed in transfected cells; host or cells: S. cerevisiae FY250
# T10 sequence (P06536 524-795 F620S/C656G limits assumed): T1 sequence (P06536 524-795 F620S/C656G limits assumed)
# T10 sequence (P0ABQ4 1-159): T3 sequence (P0ABQ4 1-159)
# Text: as §1, §2
smiles,measurement,setting,value
C[C@@H]1C[C@H]2C3CCC4=CC(=O)C=C[C@]4(C)[C@@]3(F)[C@@H](O)C[C@]2(C)[C@@]1(O)C(=O)NCCSCCCCCCCCSCC[C@H](NC(=O)c1ccc(N(C)Cc2cnc3nc(N)nc(N)c3n2)cc1)C(=O)O (stereo partly shown) [D8M],B-gal activity,[1],30 β-galactosidase units
same,B-gal activity,[2],30 β-galactosidase units
same,B-gal activity,LexA eDHFR / B42 rGR2,5555 β-galactosidase units
same,B-gal activity,LexA rGR2 / B42 eDHFR,2532 β-galactosidase units
same,B-gal activity,[3],−4 β-galactosidase units
same,B-gal activity,LexA mDHFR / B42 rGR2,38 β-galactosidase units
same,B-gal activity,[4],3867 β-galactosidase units
same,B-gal activity,[5],5210 β-galactosidase units
same,B-gal activity,[6],24 β-galactosidase units
same,B-gal activity,[7],3163 β-galactosidase units

# Source: patent US7419780B2, “Methods and assays for screening protein targets” (The Trustees of Columbia University in the City of New York, priority 2000, dated 2008)
